# How the values were obtained:
# NCI-H2171 cells = assay: Cell proliferation assay (CellTiter-Glo), NCI-H2171; assay type: cell-based; details: Homo sapiens, NCI-H2171, 120 h, 5 days
# Experimental: (§1) Example B: Cell Proliferation Assay
# (§2) NCI-H2171 and NCI-H446 cell proliferation analysis were conducted by CellTiter-Glo (Promega, Cat #G1111). The cells will be harvested respectively during the logarithmic growth period and counted with hemocytometer. […] Adjust NCI-H2171 and NCI-H446 cells concentrations to 1.0×10^5 cells/mL with complete medium (RPMI-1640 medium supplemented with 10% (v/v) fetal bovine serum). 100 μL/cell suspensions were added to 96-well plates, and the final cell densities were 1.0×10^4 cells/well. The plate will be cultured overnight in 5% CO2 and 95% humidity at 37° C. The next day, the test compound was dissolved in DMSO as stock solution. Then the different concentrations of compound were added into 96-well plates. The plates will be cultured for 5 days, then measured by means of CellTiter-Glo assay. 50 μL/cell CellTiter-Glo reagent was added into 96-well plates. Shock incubation for 5 min and then stand incubation for 10 min at room temperature. Record the Luminosity values using an microplate spectrophotometer (Spark, Tecan). Fit the data using GraphPad 8.0 and obtain IC50 values.
# (§3) Formula: Survival (%)=(Lumtest−Lummedia control)/(Lumcell control−Lummedia control)×100%
# NCI-H446 cells = assay: Cell proliferation assay (CellTiter-Glo), NCI-H446; assay type: cell-based; details: Homo sapiens, NCI-H446, 120 h, 5 days
# Experimental: as §1, §2, §3
# Aurora A = Aurora A (Homo sapiens (Human), UniProt O14965); assay: Aurora A kinase assay (mobility shift assay); assay type: biochemical
# Sequence of Aurora A (O14965 whole entry): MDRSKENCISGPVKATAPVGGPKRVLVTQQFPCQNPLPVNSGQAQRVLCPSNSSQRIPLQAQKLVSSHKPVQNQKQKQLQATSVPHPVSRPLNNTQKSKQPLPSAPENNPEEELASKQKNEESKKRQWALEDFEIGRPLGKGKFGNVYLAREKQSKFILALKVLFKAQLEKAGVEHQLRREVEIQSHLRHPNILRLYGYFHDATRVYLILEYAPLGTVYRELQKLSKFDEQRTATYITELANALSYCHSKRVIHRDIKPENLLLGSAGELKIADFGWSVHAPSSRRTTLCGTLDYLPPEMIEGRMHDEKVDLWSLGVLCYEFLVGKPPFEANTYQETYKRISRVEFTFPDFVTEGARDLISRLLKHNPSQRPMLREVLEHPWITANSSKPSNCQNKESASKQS
# Experimental: (§4) Example A: Evaluation of Aurora a and Aurora B Inhibitory Effect—Kinase Assay
# (§5) The inhibitory activities of a test compound against Aurora A and Aurora B were measured according to the following method.
# (§6) The IC50 value of Aurora A and Aurora B kinase was performed by Sundia MediTech Co. Ltd. using Mobility shift assay.
# (§7) • (1) Prepare a 1× kinase buffer [50 mM 4-(2-hydroxyethyl)-1-piperazineethanesulfonic acid (HEPES), PH 7.5, 0.01% Brij-35, 10 mM MgCl2, 2 mM dithiothreitol (DTT)]. • (2) Prepare compound:
# (§8) The testing compound was dissolved with DMSO. The testing compound was diluted up to 100× final concentration in a 384-well plate. Transfer 250 nL of the compound dilution to a 384-well assay plate using Echo 550. 100% DMSO of 250 nL was added to the negative control well and the positive control well. • (3) Prepare a 2.5× enzyme solution using the above 1× kinase buffer. • (4) Add 10 μL of the 2.5× enzyme solution to the compound well and the positive control well of the 384-well assay plate. Add 10 μL of the 1× kinase buffer to the negative control well. • (5) The 384-well plate was centrifuged at 1000 rpm for 30 seconds and incubated at room temperature for 10 min. • (6) A mixture of ATP and Kinase substrate 21 with a final concentration of 25/15× was prepared by the 1× kinase buffer. • (7) Add 15 μL of the mixture of 25/15×ATP and kinase substrate solution 21 to start reaction. • (8) The 384-well plate was centrifuged at 1000 rpm for 30 seconds and incubated at room temperature. • (9) 30 μL of the stop and detection buffer was added to stop the kinase reaction and centrifuged at 1000 rpm for 30 seconds. • (10) Collect data on Caliper EZ ReaderII. Data Analysis:
# (§9) Conversion %_sample is conversion rate data of samples. Conversion %_min is mean value of negative control (conversion rate data without enzyme activation). Conversion %_max is mean positive control (conversion rate data without compound).
# (§10) The log of concentration is on the X axis, and the percentage inhibition is on the Y axis. Fit the Quantitative effect curves with log (inhibitor) vs. response—Variable slope in GraphPad Prism5 obtain IC50 values. Equation used is Y=Bottom+(Top−Bottom)/(1+10^((Log IC50−X)*HillSlope)).
# Aurora B = Aurora B (Homo sapiens (Human), UniProt Q96GD4); assay: Aurora B kinase assay (mobility shift assay); assay type: biochemical; details: ratio of Aurora B IC50 to Aurora A IC50
# Sequence of Aurora B (Q96GD4 whole entry): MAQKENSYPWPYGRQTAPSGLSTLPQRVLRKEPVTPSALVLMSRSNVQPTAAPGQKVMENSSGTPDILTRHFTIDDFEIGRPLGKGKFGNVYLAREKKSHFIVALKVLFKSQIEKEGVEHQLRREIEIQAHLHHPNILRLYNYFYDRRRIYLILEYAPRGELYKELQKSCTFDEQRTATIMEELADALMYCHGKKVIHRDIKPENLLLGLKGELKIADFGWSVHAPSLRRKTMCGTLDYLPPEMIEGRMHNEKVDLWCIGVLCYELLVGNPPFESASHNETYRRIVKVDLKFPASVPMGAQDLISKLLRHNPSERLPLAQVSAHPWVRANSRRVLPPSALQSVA
# Experimental: as §4, §5, §6, §7, §8, §9, §10
# PK in rat = assay type: in vivo; details: SD male rats
# Experimental: The compounds were dissolved into 10% DMSO, 30% PEG400, and 60% saline to obtain a solution. SD male rats were given the compound orally and intravenously. Then plasma samples were collected at 0 hour (pre-dose), 0.25, 0.5, 1, 2, 4, 7, 24 hours post-dose. Plasma drug concentration was detected by LC-MS/MS. Pharmacokinetic parameters were calculated using WinNonlin's software with non-compartmental model.
IC50 (Aurora A),IC50 Ratio Aur B/Aur A (Aurora B),SMILES,further results
0.57 nM,716,"CCc1cc(Nc2cc(C)[nH]n2)nc(CC2(C(=O)O)CCN(Cc3cccc(Cl)c3F)CC2)c1F [Example 66, 1-(3-chloro-2-fluorobenzyl)-4-((4-ethyl-3-fluoro-6-((5-methyl-1H-pyrazol-3-yl)amino)-pyridin-2-yl)methyl)piperidine-4-carboxylic acid]",
0.76 nM,779,"Cc1cc(Nc2nc(C[C@@]3(C(=O)O)CCN(Cc4cccc(Cl)c4F)[C@H](C)C3)cc(Cl)c2F)n[nH]1 [Example 73, (2R,4R)-1-(3-chloro-2-fluorobenzyl)-4-((4-chloro-5-fluoro-6-((5-methyl-1H-pyrazol-3-yl)amino)pyridin-2-yl)methyl)-2-methylpiperidine-4-carboxylic acid]",IC50 (NCI-H2171 cells): 27 nM; IC50 (NCI-H446 cells): 63 nM
0.43 nM,2041,Cc1cc(Nc2cc(C)c(F)c(CC3(C(=O)O)CCN(Cc4cccc(Cl)c4Cl)CC3)n2)n[nH]1 [Example 54],
1.6 nM,759,"Cc1cc(Nc2cc(C#N)c(F)c(C[C@@]3(C(=O)O)CCN(Cc4cccc(Cl)c4F)[C@H](C)C3)n2)[nH]n1 [Example 67, (2R,4R)-1-(3-chloro-2-fluorobenzyl)-4-((4-cyano-3-fluoro-6-((3-methyl-1H-pyrazol-5-yl)amino)pyridin-2-yl)methyl)-2-methylpiperidine-4-carboxylic acid]",
0.93 nM,804,"Cc1[nH]nc(Nc2ccc(F)c(CC3(C(=O)O)CCN(Cc4cccc(Cl)c4F)C(C)C3)n2)c1C (centres unmarked) [Example 102, 1-(3-chloro-2-fluorobenzyl)-4-((6-((4,5-dimethyl-1H-pyrazol-3-yl)-amino)-3-fluoropyridin-2-yl)-methyl)-2-methylpiperidine-4-carb-oxylic acid]",

# Continued, molecule first:
SMILES,IC50 (Aurora A),IC50 Ratio Aur B/Aur A (Aurora B),further results
"Cc1cc(Nc2cc(C)c(F)c(C[C@@]3(C(=O)O)CCN(Cc4cccc(Cl)c4Cl)[C@H](C)C3)n2)n[nH]1 [Example 53, (2R,4R)-1-(2,3-dichloro-benzyl)-4-((3-fluoro-4-methyl-6-((5-methyl-1H-pyrazol-3-yl)-amino)pyridin-2-yl)methyl)-2-methylpiperidine-4-carboxylic acid]",0.55 nM,562,IC50 (NCI-H2171 cells): 57 nM; IC50 (NCI-H446 cells): 154 nM
"CC(=O)c1cc(Nc2cc(C)[nH]n2)nc(CC2(C(=O)O)CCN(Cc3cccc(Cl)c3F)CC2)c1F [Example 69, 4-((4-acetyl-3-fluoro-6-((5-methyl-1H-pyrazol-3-yl)-amino)pyridin-2-yl)methyl)-1-(3-chloro-2-fluorobenzyl)-piperidine-4-carboxylic acid]",,,IC50 (NCI-H2171 cells): 41 nM; IC50 (NCI-H446 cells): 87 nM
"Cc1cc(Nc2ccc(F)c(C[C@@]3(C(=O)O)CCN(C(=O)Cc4cccc(Cl)c4F)[C@H](C)C3)n2)n[nH]1 [Example 38, (2R,4R)-1-(2-(3-chloro-2-fluorophenyl)acetyl)-4-((3-fluoro-6-((5-methyl-1H-pyrazol-3-yl)amino)pyri-din-2-yl)methyl)-2-methyl-piperidine-4-carboxylic acid]",0.85 nM,986,
"Cc1cc(Nc2ccc(F)c(C[C@@]3(C(=O)O)CCN([C@@H](C)c4cccc(Cl)c4F)[C@H](C)C3)n2)n[nH]1 [Example 41, (2R,4R)-1-(1-(3-chloro-2-fluorophenyl)ethyl)-4-((3-fluoro-6-((5-methyl-1H-pyrazol-3-yl)amino)pyridin-2-yl)methyl)-2-methylpiperidine-4-carboxylic acid]",2.7 nM,3682,
"Cc1cc(Nc2ccc(F)c(C[C@@]3(C(=O)O)CCN(S(=O)(=O)c4ccccc4C(F)(F)F)[C@H](C)C3)n2)n[nH]1 [Example 39, (2R,4R)-4-((3-fluoro-6-((5-methyl-1H-pyrazol-3-yl)amino)pyridin-2-yl)methyl)-2-methyl-1-((2-(trifluoromethyl)phenyl)sulfonyl)piperidine-4-carboxylic acid]",0.57 nM,3019,
"Cc1cc(Nc2cccc(C[C@@]3(C(=O)O)CCN(Cc4cccc(Cl)c4F)[C@H](C)C3)n2)n[nH]1 [Example 29, (2R,4R)-1-(3-chloro-2-fluorobenzyl)-2-methyl-4-((6-((5-methyl-1H-pyrazol-3-yl)amino)pyridin-2-yl)methyl)piperidine-4-carboxylic acid]",1.4 nM,586,
"Cc1cc(Nc2ccc(F)c(C[C@@]3(C(=O)O)CCN(Cc4cccc(Cl)c4F)[C@H](C)C3)n2)n[nH]1 [LY3295668, reference compound]",,,CL (PK in rat; IV: 3 mg/kg): 1.52 mL/min/kg; Vss (PK in rat; IV: 3 mg/kg): 0.29 L/kg; AUClast (PK in rat; PO: 10 mg/kg): 91211 ng·h/mL; Cmax (PK in rat; PO: 10 mg/kg): 15033 ng/mL; t1/2 (PK in rat; PO: 10 mg/kg): 3.37 h; F% (PK in rat; PO: 10 mg/kg vs IV: 3 mg/kg): 81%
"Cc1cc(Nc2ccc(F)c(C[C@@]3(C(=O)O)CCN(Cc4cccc(C)c4F)[C@H](C)C3)n2)n[nH]1 [Example 16, (2R,4R)-1-(2-fluoro-3-methylbenzyl)-4-((3-fluoro-6-((5-methyl-1H-pyrazol-3-yl)amino)pyridin-2-yl)methyl)-2-methylpiperidine-4-carboxylic acid]",1.7 nM,1812,
"Cc1cc(Nc2cc(F)cc(C[C@@]3(C(=O)O)CCN(Cc4cccc(Cl)c4F)[C@H](C)C3)n2)n[nH]1 [Example 30, (2R,4R)-1-(3-chloro-2-fluorobenzyl)-4-((4-fluoro-6-((5-methyl-1H-pyrazol-3-yl)amino)pyridin-2-yl)methyl)-2-methylpiperidine-4-carboxylic acid]",,,IC50 (NCI-H2171 cells): 62 nM; IC50 (NCI-H446 cells): 128 nM
"Cc1cc(Nc2nc(C[C@@]3(C(=O)O)CCN(Cc4cccc(Cl)c4F)[C@H](C)C3)cnc2C)n[nH]1 [Example 33, (2R,4R)-1-(3-chloro-2-fluorobenzyl)-2-methyl-4-((5-methyl-6-((5-methyl-1H-pyrazol-3-yl)amino)pyrazin-2-yl)methyl) piperidine-4-carboxylic acid]",1.5 nM,3757,
"Cc1cc(Nc2ccc(Cl)c(C[C@@]3(C(=O)O)CCN(Cc4cccc(Cl)c4F)[C@H](C)C3)n2)n[nH]1 [Example 11, (2R,4R)-1-(3-chloro-2-fluorobenzyl)-4-((3-chloro-6-((5-methyl-1H-pyrazol-3-yl)amino)pyridin-2-yl)methyl)-2-methylpiperidine-4-carboxylic acid]",0.64 nM,2264,
"Cc1cc(Nc2ccc(F)c(C[C@@]3(C(=O)O)CCN(Cc4cc(Cl)c(F)c(Cl)c4)[C@H](C)C3)n2)n[nH]1 [Example 23, (2R,4R)-1-(3,5-dichloro-4-fluorobenzyl)-4-((3-fluoro-6-((5-methyl-1H-pyrazol-3-yl)amino)pyridin-2-yl)methyl)-2-methylpiperidine-4-carboxylic acid]",0.91 nM,613,
"Cc1cc(Nc2nc(C[C@@]3(C(=O)O)CCN(Cc4cccc(Cl)c4F)[C@H](C)C3)c(F)cc2C)[nH]n1 [Example 35, (2R,4R)-1-(3-chloro-2-fluorobenzyl)-4-((3-fluoro-5-methyl-6-((3-methyl-1H-pyrazol-5-yl)amino)pyridin-2-yl)methyl)-2-methylpiperidine-4-carboxylic acid]",1.9 nM,2403,
